Experimental data: US20150133297A1, “NEW ANTIFUNGAL COMPOSITIONS” (DSM IP ASSETS B.V., priority 2012, published 2015)
Where “and” joins values, the source holds several entries; their conditions need not be identical. Equal entries are not always repeated.

Tested on: Penicillium italicum
Assay: Treatment of oranges (Examples 6-9): wounded, inoculated, wound treated with antifungal composition
Format: in vivo
Details: for Observed antifungal activity O (%): oranges, 20° C.
Protocol: During incubation, mould growth on the strawberries was assessed in a twofold manner: (i) the number of moulded strawberries per total of 12 strawberries was counted; and (ii) the antifungal activity (in %) of the individual and combined active ingredients was determined by calculating the reduction in mould growth observed on the strawberries treated with the antifungal composition in comparison to the mould growth on the strawberries treated with the control composition. The expected antifungal activity (E in %) of the combined antifungal composition comprising both active ingredients was calculated according to the Colby equation (Colby, 1967): […]
Eight fresh, organic oranges were used per treatment. Each orange was soaked in a 180 ppm hypochlorite solution for 10 minutes, then rinsed thoroughly with fresh tap water and dried. The peel of each disinfected orange was wounded once using a cork borer according to the method described by de Lapeyre de Bellaire and Dubois (1987). Subsequently, each wound was inoculated with 10 μl of a Penicillium italicum suspension containing 5×10^5 of spores/ml. After incubation for 3 hours at 20° C., each wound and the orange peel area of 1 cm around the wound was treated with in total 150 μl of a freshly prepared aqueous antifungal composition comprising either 500 ppm natamycin (DSM Food Specialties, Delft, The Netherlands), 500 ppm fenpropidin or both. Each antifungal composition also comprised 3.2% (w/w) beeswax, 0.8% (w/w) glycerol, 0.7% (w/w) polyoxyethylene sorbitan monostearate (Tween 60), 0.1% (w/w) polyoxyethylene sorbitan monooleate (Tween 80), 0.05% (w/w) methylhydroxyethyl-cellulose (MHEC), 0.03% (w/w) anti-foaming agent, 0.02% (w/w) xanthan gum, 0.02% (w/w) citric acid, 0.01% (w/w) lactic acid and 0.01% potassium sorbate. A composition without natamycin or fenpropidin was used as control. […] The treated oranges were incubated in a closed box in the dark at 20° C. and assessed on mould growth during a 28-day incubation period. The antifungal activity (in %) of the individual and combined active ingredients was determined by calculating the reduction in mould growth observed on the oranges treated with the antifungal composition in comparison to the mould growth on the oranges treated with the control composition according to the Colby method (Colby, 1967) as described in Example 5.
The experiment was conducted as described in Example 6, except for the fact that each wounded and inoculated orange was treated with 150 μl of a freshly prepared aqueous antifungal composition comprising either 250 ppm natamycin (DSM Food Specialties, Delft, The Netherlands), 250 ppm fenpropidin or both. During the 26-day incubation period, the treated oranges were assessed on mould growth according to the two methods described in Example 5.
The experiment was conducted as described in Example 6, except for the fact that each wounded and inoculated orange was treated with 150 μl of a freshly prepared aqueous antifungal composition comprising either 500 ppm natamycin (DSM Food Specialties, Delft, The Netherlands), 400 ppm spiroxamine or both. During the 26-day incubation period, the treated oranges were assessed on mould growth according to the two methods described in Example 5.
The experiment was conducted as described in Example 6, except for the fact that each wounded and inoculated orange was treated with 150 μl of a freshly prepared aqueous antifungal composition comprising either 250 ppm natamycin (DSM Food Specialties, Delft, The Netherlands), 200 ppm spiroxamine or both. During the 26-day incubation period, the treated oranges were assessed on mould growth according to the two methods described in Example 5.

SMILES: C[C@@H]1C/C=C/C=C/C=C/C=C/[C@H](O[C@@H]2O[C@H](C)[C@@H](O)[C@H](N)[C@@H]2O)C[C@@H]2O[C@](O)(C[C@@H](O)C[C@H]3O[C@@H]3/C=C/C(=O)O1)C[C@H](O)[C@H]2C(=O)O [Natamycin, natamycin]
- Number of moulded oranges/total number of 8 oranges (Day 11, 20° C., 250 ppm natamycin, 200 ppm spiroxamine or both): 5 and 5/8
- Number of moulded oranges/total number of 8 oranges (Day 12, 20° C., 250 ppm natamycin, 200 ppm spiroxamine or both): 5 and 5/8
- Number of moulded oranges/total number of 8 oranges (Day 13, 20° C., 250 ppm natamycin, 200 ppm spiroxamine or both): 5/8
- Number of moulded oranges/total number of 8 oranges (Day 14-15, 20° C., 250 ppm natamycin, 200 ppm spiroxamine or both): 6/8
- Number of moulded oranges/total number of 8 oranges (Day 14-16, 20° C., 500 ppm natamycin, 400 ppm spiroxamine or both): 5/8
- Number of moulded oranges/total number of 8 oranges (Day 16, 20° C., 250 ppm natamycin, 200 ppm spiroxamine or both): 6 and 6/8
- Number of moulded oranges/total number of 8 oranges (Day 18, 20° C., 250 ppm natamycin, 200 ppm spiroxamine or both): 6 and 6/8
- Number of moulded oranges/total number of 8 oranges (Day 18, 20° C., 250 ppm natamycin, 250 ppm fenpropidin or both): 6/8
- Number of moulded oranges/total number of 8 oranges (Day 18, 20° C., 500 ppm natamycin, 400 ppm spiroxamine or both): 6/8
- Number of moulded oranges/total number of 8 oranges (Day 19, 20° C., 250 ppm natamycin, 250 ppm fenpropidin or both): 7/8
- Number of moulded oranges/total number of 8 oranges (Day 19-21, 20° C., 500 ppm natamycin, 400 ppm spiroxamine or both): 6 and 6/8
- Number of moulded oranges/total number of 8 oranges (Day 19-25, 20° C., 250 ppm natamycin, 200 ppm spiroxamine or both): 7/8
- Number of moulded oranges/total number of 8 oranges (Day 20, 20° C., 250 ppm natamycin, 250 ppm fenpropidin or both): 7/8
- Number of moulded oranges/total number of 8 oranges (Day 21-22, 20° C., 250 ppm natamycin, 250 ppm fenpropidin or both): 7 and 7/8
- Number of moulded oranges/total number of 8 oranges (Day 22-23, 20° C., 500 ppm natamycin, 400 ppm spiroxamine or both): 6 and 6/8
- Number of moulded oranges/total number of 8 oranges (Day 23-26, 20° C., 250 ppm natamycin, 250 ppm fenpropidin or both): 7 and 7/8
- Number of moulded oranges/total number of 8 oranges (Day 26, 20° C., 250 ppm natamycin, 200 ppm spiroxamine or both): 7/8
- moulded oranges of the 8 oranges (days 19 through 26, 250 ppm natamycin, 200 ppm spiroxamine or both): 7
- Observed antifungal activity O (%) (day 11, 250 ppm natamycin, 200 ppm spiroxamine or both): 80%
- Observed antifungal activity O (%) (day 12, 250 ppm natamycin, 200 ppm spiroxamine or both): 73%
- Observed antifungal activity O (%) (day 13, 250 ppm natamycin, 200 ppm spiroxamine or both): 63%
- Observed antifungal activity O (%) (day 14, 250 ppm natamycin, 200 ppm spiroxamine or both): 50%
- Observed antifungal activity O (%) (day 15, 250 ppm natamycin, 200 ppm spiroxamine or both): 46%
- Observed antifungal activity O (%) (day 16, 250 ppm natamycin, 200 ppm spiroxamine or both): 43%
- Observed antifungal activity O (%) (day 18, 250 ppm natamycin, 200 ppm spiroxamine or both): 41%
- Observed antifungal activity O (%) (day 18, 250 ppm natamycin, 250 ppm fenpropidin or both): 41%
- Observed antifungal activity O (%) (day 18, 500 ppm natamycin, 400 ppm spiroxamine or both): 32%
- Observed antifungal activity O (%) (day 19, 250 ppm natamycin, 200 ppm spiroxamine or both): 36%
- Observed antifungal activity O (%) (day 19, 250 ppm natamycin, 250 ppm fenpropidin or both): 36%
- Observed antifungal activity O (%) (day 19, 500 ppm natamycin, 400 ppm spiroxamine or both): 29%
- Observed antifungal activity O (%) (day 20, 250 ppm natamycin, 200 ppm spiroxamine or both): 34%
- Observed antifungal activity O (%) (day 20, 250 ppm natamycin, 250 ppm fenpropidin or both): 34%
- Observed antifungal activity O (%) (day 20, 500 ppm natamycin, 400 ppm spiroxamine or both): 20%
- Observed antifungal activity O (%) (day 21, 250 ppm natamycin, 200 ppm spiroxamine or both): 32%
- Observed antifungal activity O (%) (day 21, 250 ppm natamycin, 250 ppm fenpropidin or both): 32%
- Observed antifungal activity O (%) (day 21, 500 ppm natamycin, 400 ppm spiroxamine or both): 16%
- Observed antifungal activity O (%) (day 22, 250 ppm natamycin, 200 ppm spiroxamine or both): 29%
- Observed antifungal activity O (%) (day 22, 250 ppm natamycin, 250 ppm fenpropidin or both): 29%
- Observed antifungal activity O (%) (day 22, 500 ppm natamycin, 400 ppm spiroxamine or both): 14%
- Observed antifungal activity O (%) (day 22, 500 ppm natamycin, 500 ppm fenpropidin or both): 14%
- Observed antifungal activity O (%) (day 23, 250 ppm natamycin, 200 ppm spiroxamine or both): 25%
- Observed antifungal activity O (%) (day 23, 250 ppm natamycin, 250 ppm fenpropidin or both): 25%
- Observed antifungal activity O (%) (day 23, 500 ppm natamycin, 400 ppm spiroxamine or both): 14%
- Observed antifungal activity O (%) (day 23, 500 ppm natamycin, 500 ppm fenpropidin or both): 14%
- Observed antifungal activity O (%) (day 25-26, 500 ppm natamycin, 400 ppm spiroxamine or both): 14%
- Observed antifungal activity O (%) (day 25, 250 ppm natamycin, 200 ppm spiroxamine or both): 19%
- Observed antifungal activity O (%) (day 25, 250 ppm natamycin, 250 ppm fenpropidin or both): 19%
- Observed antifungal activity O (%) (day 25, 500 ppm natamycin, 500 ppm fenpropidin or both): 14%
- Observed antifungal activity O (%) (day 26, 250 ppm natamycin, 200 ppm spiroxamine or both): 17%
- Observed antifungal activity O (%) (day 26, 250 ppm natamycin, 250 ppm fenpropidin or both): 17%
- Observed antifungal activity O (%) (day 26, 500 ppm natamycin, 500 ppm fenpropidin or both): 14%
- Observed antifungal activity O (%) (day 27, 500 ppm natamycin, 500 ppm fenpropidin or both): 14%
- Observed antifungal activity O (%) (day 28, 500 ppm natamycin, 500 ppm fenpropidin or both): 14%
